Literature values in patent publication US20050147620A1, “Cinnamon formulation for reducing cholesterol and/or glucose levels” (priority 2004, published 2005).

Key:
[1] = ingestion of 20 to 30 g per day for several days

Row | pKa | Structure (SMILES) | increase in human skeletal muscle total creatine content [1]
1 |  | CN(CC(=O)O)C(=N)N.O [creatine monohydrate] | greater than 20%
2 | 4.7 | O=C(O)CCCCC1CCSS1 (stereo not drawn) [lipoic acid, α-lipoic acid] | 
